Reference: ChEMBL document CHEMBL5247598 (Eur J Med Chem, 2022)
The source made the active and inactive calls. The calls are words filed in the database; no cut-off is given here.

What was measured:
NCI/ADR-RES [1] = assay: Antiproliferative activity against human multidrug resistant NCI-ADR-RES cells overexpressing P-gp assessed as reduction in cell viability incubated for 48 hrs by MTT assay; type: functional, cell-based
NCI/ADR-RES [2] = assay: Reversal fold, ratio of doxorubicin IC50 to doxorubicin IC50 in presence of 10 uM test compound for reversal of P-gp-mediated multidrug resistance in human NCI-ADR-RES cells incubated for 48 hrs by MTT assay; type: functional
MCF7 [3] = assay: Antiproliferative activity against human MCF7 cells assessed as reduction in cell viability incubated for 48 hrs by MTT assay; type: functional, cell-based; details: MCF7, 48 h
[4] = Cytotoxicity against human HEK293T cells assessed as reduction in cell viability incubated for 48 hrs by MTT assay; type: toxicity, cell-based, HEK-293T
NCI/ADR-RES [5] = assay: Reversal of P-gp-mediated multidrug resistance in human NCI-ADR-RES cells assessed as potentiation of doxorubicin-induced cytotoxicity incubated for 48 hrs by MTT assay; type: functional, cell-based
HCT-8 [6] = assay: Antiproliferative activity against human Taxol resistant HCT-8 cells assessed as inhibition of cell growth at 50 uM incubated for 48 hrs by MTT assay; type: functional, cell-based
MCF7 [7] = assay: Antiproliferative activity against human MCF7 cells assessed as inhibition of cell growth at 50 uM incubated for 48 hrs by MTT assay; type: functional, cell-based
A549 = assay: Antiproliferative activity against human A549 cells assessed as inhibition of cell growth at 50 uM incubated for 48 hrs by MTT assay; type: functional, cell-based
NCI/ADR-RES [8] = assay: Antiproliferative activity against human multidrug resistant NCI-ADR-RES cells assessed as inhibition of cell growth at 50 uM incubated for 48 hrs by MTT assay; type: functional, cell-based
HCT-8 [9] = assay: Antiproliferative activity against human HCT-8 cells assessed as inhibition of cell growth at 50 uM incubated for 48 hrs by MTT assay; type: functional, cell-based
A549/TR = assay: Antiproliferative activity against human Taxol resistant A549 cells assessed as inhibition of cell growth at 50 uM incubated for 48 hrs by MTT assay; type: functional, cell-based
P-gp = assay: Therapeutic index, ratio of IC50 for cytotoxicity against human HEK293T cells to EC50 for reversal of P-gp-mediated multidrug resistance in human NCI-ADR-RES cells; type: toxicity, cell-based; details: read-out: Ratio IC50/EC50
L02 = assay: Cytotoxicity against human L02 cells assessed as inhibition of cell growth at 50 uM incubated for 48 hrs by MTT assay; type: toxicity, cell-based; details: l02, 48 h
[10] = Cytotoxicity against mouse MPC-5 cells assessed as inhibition of cell growth at 50 uM incubated for 48 hrs by MTT assay; type: toxicity, cell-based; details: mpc-5, 48 h
HEK-293T [11] = assay: Cytotoxicity against human HEK293T cells assessed as cell survival rate at 10 uM incubated for 48 hrs by MTT assay; type: toxicity, cell-based
HEK-293T [12] = assay: Cytotoxicity against human HEK293T cells assessed as inhibition of cell growth at 50 uM incubated for 48 hrs by MTT assay; type: toxicity, cell-based

Row | IC50 (MCF7 [3]; read-out: IC50) | SMILES | IC50 (NCI/ADR-RES [1]) | Ratio IC50 (NCI/ADR-RES [2]) | IC50 at 48 h [4] | further results
1 | 74.3 µM | C=C1[C@H](OC(C)=O)[C@@H](OC(C)=O)[C@@H](OC(C)=O)C(C)(C)/C=C/[C@H](C)[C@H](OC(=O)c2ccccc2)[C@@]2(O)C[C@@](C)(OC(C)=O)[C@H](OC(C)=O)[C@@H]2[C@H]1OCC(C)C | > 100 µM | 12.16 | 26.1 µM | 
2 | 21.6 µM | C=C1[C@H](OC(=O)c2cccc(C)c2)[C@@H](O)[C@@H](O)C(C)(C)/C=C/[C@H](C)[C@H](OC(=O)c2ccccc2)[C@@]2(O)C[C@@](C)(O)[C@H](OC(C)=O)[C@@H]2[C@H]1OCC(C)C | 33.6 µM | 8.85 | 12 µM | 
3 | 63.8 µM | C=C1[C@H](O)[C@@H](OC(=O)c2cccc(C)c2)[C@@H](O)C(C)(C)/C=C/[C@H](C)[C@H](OC(=O)c2ccccc2)[C@@]2(O)C[C@@](C)(O)[C@H](OC(C)=O)[C@@H]2[C@H]1OCC(C)C | 75.2 µM | 7.66 | 31.3 µM | 
4 | > 100 µM | CC(=O)O[C@@H]1[C@@H]2[C@@H](OCC(C)C)C3(CO3)[C@H](O)[C@@H](O)[C@@H](O)C(C)(C)/C=C/[C@H](C)[C@H](OC(=O)c3ccccc3)[C@@]2(O)C[C@@]1(C)O (stereo partly drawn) | > 100 µM |  | > 100 µM | 
5 | > 100 µM | C=C1[C@H](O)[C@@H](O)[C@@H](O)C(C)(C)/C=C/[C@H](C)[C@H](OC(=O)c2ccccc2)[C@@]2(O)C[C@@](C)(O)[C@H](OC(C)=O)[C@@H]2[C@H]1OCC(C)C | > 100 µM |  | > 100 µM | 
6 | 69.9 µM | C=C1[C@H](O)[C@@H](OC(=O)C(C)(C)C)[C@@H](O)C(C)(C)/C=C/[C@H](C)[C@H](OC(=O)c2ccccc2)[C@@]2(O)C[C@@](C)(O)[C@H](OC(C)=O)[C@@H]2[C@H]1OCC(C)C | > 100 µM | 0.91 | 31.7 µM | 
7 |  | COc1ccc(CCN(C)CCCC(C#N)(c2ccc(OC)c(OC)c2)C(C)C)cc1OC (stereo not drawn) | > 100 µM |  | 32 µM | EC50 (NCI/ADR-RES [5]): 322 nM; Activity (HCT-8 [6]): inactive; Activity (MCF7 [7]): inactive; Activity (A549): inactive; Activity (NCI/ADR-RES [8]): inactive; Activity (HCT-8 [9]): inactive; IC50 (MCF7 [3]): 87.8 µM; Activity (A549/TR): inactive
8 | > 100 µM | C=C1[C@H](OC(C)=O)[C@@H](OC(=O)C(C)(C)C)[C@@H](OC(C)=O)C(C)(C)/C=C/[C@H](C)[C@H](OC(=O)c2ccccc2)[C@@]2(O)C[C@@](C)(O)[C@H](OC(C)=O)[C@@H]2[C@H]1OCC(C)C | > 100 µM | 47.77 | 52.1 µM | 
9 | > 100 µM | C=C1[C@H](OCC(C)C)C2=C(C[C@@](C)(OC(C)=O)[C@@H]2OC(C)=O)[C@@H](OC(=O)c2ccccc2)[C@@H](C)/C=C/C(C)(C)[C@H](OC(C)=O)[C@H](OC(C)=O)[C@H]1OCC(C)C | > 100 µM | 15.81 | > 100 µM | 
10 | > 100 µM | C=C1[C@H](OC(C)=O)[C@@H](OC(C)=O)[C@@H](OC(C)=O)C(C)(C)/C=C/[C@H](C)[C@H](OC(=O)c2ccccc2)[C@@]2(O)C[C@@](C)(OC(=O)c3ccncc3)[C@H](OC(C)=O)[C@@H]2[C@H]1OCC(C)C | > 100 µM | 89.33 | 19.5 µM | 
11 | 23.4 µM | C=C1[C@H](OC(C)=O)[C@@H](OC(=O)c2cccc(C)c2)[C@@H](OC(C)=O)C(C)(C)/C=C/[C@H](C)[C@H](OC(=O)c2ccccc2)[C@@]2(O)C[C@@](C)(O)[C@H](OC(C)=O)[C@@H]2[C@H]1OCC(C)C | > 100 µM | 59.71 | 4.11 µM | 
12 | > 100 µM | C=C1[C@H](OCC(C)C)[C@@H](OC(C)=O)[C@@H](OC(C)=O)C(C)(C)/C=C/[C@H](C)[C@H](OC(=O)c2ccccc2)[C@@]2(O)C[C@@](C)(OC(C)=O)[C@H](OC(C)=O)[C@@H]2[C@H]1OCC(C)C | > 100 µM | 10.64 | > 100 µM | 
13 | > 100 µM | C=C1[C@H](OC(C)=O)[C@@H](OC(C)=O)[C@@H](OC(C)=O)C(C)(C)/C=C/[C@H](C)[C@H](OC(=O)c2ccccc2)[C@@]2(O)C[C@@](C)(O)[C@H](OC(C)=O)[C@@H]2[C@H]1OCC(C)C | > 100 µM | 4.49 | 39.3 µM | 
14 | > 100 µM | C=C1[C@H](OC(C)=O)[C@@H](OC(C)=O)[C@@H](O)C(C)(C)/C=C/[C@H](C)[C@H](OC(=O)c2ccccc2)[C@@]2(O)C[C@@](C)(O)[C@H](OC(C)=O)[C@@H]2[C@H]1OCC(C)C | > 100 µM |  | > 100 µM | 
15 | 8.11 µM | COc1cc2c(cc1OC)CN(CCc1ccc(NC(=O)c3cc(OC)c(OC)cc3NC(=O)c3cnc4ccccc4c3)cc1)CC2 | 98.5 µM | 47.2 | 5.22 µM | EC50 (NCI/ADR-RES [5]): 18.7 nM; Activity (HCT-8 [6]): Active; Activity (MCF7 [7]): Active; selectivity ratio (P-gp): 278; Activity (L02): Toxic; Activity (A549): Active; Activity (NCI/ADR-RES [8]): Active; Activity [10]: Toxic; Activity (HEK-293T [11]): Toxic; Activity (HCT-8 [9]): Active; Activity (A549/TR): Active; Activity (HEK-293T [12]): Toxic
16 | > 100 µM | C=C1[C@H](OC(C)=O)[C@@H](OC(=O)c2cccc(C)c2)[C@@H](OC(C)=O)C(C)(C)/C=C/[C@H](C)[C@H](OC(=O)c2ccccc2)[C@@]2(O)C[C@@](C)(OC(C)=O)[C@H](OC(C)=O)[C@@H]2[C@H]1OCC(C)C | > 100 µM | 30.48 | 7.6 µM | 
17 | > 100 µM | C=C1[C@H](OC(C)=O)[C@@H](OC(=O)C(C)(C)C)[C@@H](OC(C)=O)C(C)(C)/C=C/[C@H](C)[C@H]2O[C@]3(C)C[C@@]2(OC(=O)c2ccccc2)[C@H]([C@H]3OC(C)=O)[C@H]1OCC(C)C | > 100 µM | 21.3 | > 100 µM | 
18 | > 100 µM | C=C1[C@H](OC(C)=O)[C@@H](OC(=O)C(C)(C)C)[C@@H](OC(C)=O)C(C)(C)/C=C/[C@H](C)[C@H](OC(=O)c2ccccc2)[C@@]2(O)C[C@@](C)(OC(C)=O)[C@H](OC(C)=O)[C@@H]2[C@H]1OCC(C)C | > 100 µM | 33.78 | 18.9 µM | 
19 | > 100 µM | C=C1[C@H](OCC(C)C)[C@@H](OC(C)=O)[C@@H](OC(C)=O)C(C)(C)[C@@H]2O[C@H]2[C@H](C)[C@H](OC(=O)c2ccccc2)[C@@]2(O)C[C@@](C)(OC(C)=O)[C@H](OC(C)=O)[C@@H]2[C@H]1OCC(C)C | > 100 µM | 52.31 | 48.1 µM | 
20 | > 100 µM | C=C1[C@H](OC(C)=O)[C@@H](OC(C)=O)[C@@H](OC(C)=O)C(C)(C)/C=C/[C@H](C)[C@H]2O[C@]3(C)C[C@@]2(OC(=O)c2ccccc2)[C@H]([C@H]3OC(C)=O)[C@H]1OCC(C)C | > 100 µM | 34.3 | 13.5 µM | 
21 | > 100 µM | C=C1[C@H](OC(C)=O)[C@@H](OC(=O)c2cccc(C)c2)[C@@H](OC(C)=O)C(C)(C)/C=C/[C@H](C)[C@H]2O[C@]3(C)C[C@@]2(OC(=O)c2ccccc2)[C@H]([C@H]3OC(C)=O)[C@H]1OCC(C)C | > 100 µM | 8.9 | > 100 µM | 
22 | > 100 µM | C=C1[C@H](OC(C)=O)[C@@H](OC(C)=O)[C@@H](OC(C)=O)C(C)(C)/C=C/[C@H](C)[C@H](OC(=O)c2ccccc2)[C@@]2(O)C[C@@](C)(OC(=O)c3cccc(C)c3)[C@H](OC(C)=O)[C@@H]2[C@H]1OCC(C)C | > 100 µM | 38.74 | 7.22 µM | 
